Results: PMC6158327, “Negative Allosteric Modulators of mGlu7 Receptor as Putative Antipsychotic Drugs” (Frontiers in Molecular Neuroscience, 2018)

Legend:
rotarod performance = experiment: Rotarod test (motor coordination); assay type: in vivo, Albino Swiss mice; conditions: 5, 15, and 30 mg/kg i.p., 30 min before the test trial, mice
Description: The animals were trained for 3 consecutive days at the speed of 18 rpm, one session per day for 3 min. If a mice fell during the habituation period, it was placed back on the apparatus. On the following day, the test trial was performed. After the mice were placed on the apparatus (Mouse Rota-Rod NG, UGO BASILE S.R.L.) moving at the speed of 12 rpm, the accelerating mode was started (maximum speed – 24 rpm). The latency to fall was measured during 3-min test session.

Cytochrome P450 1A2 = molecular target: T1, Cytochrome P450 1A2 (Homo sapiens, UniProt P05177); experiment: Cytochrome P450 inhibition, 1A2; assay type: in vitro ADME
T1 sequence (P05177 1-516): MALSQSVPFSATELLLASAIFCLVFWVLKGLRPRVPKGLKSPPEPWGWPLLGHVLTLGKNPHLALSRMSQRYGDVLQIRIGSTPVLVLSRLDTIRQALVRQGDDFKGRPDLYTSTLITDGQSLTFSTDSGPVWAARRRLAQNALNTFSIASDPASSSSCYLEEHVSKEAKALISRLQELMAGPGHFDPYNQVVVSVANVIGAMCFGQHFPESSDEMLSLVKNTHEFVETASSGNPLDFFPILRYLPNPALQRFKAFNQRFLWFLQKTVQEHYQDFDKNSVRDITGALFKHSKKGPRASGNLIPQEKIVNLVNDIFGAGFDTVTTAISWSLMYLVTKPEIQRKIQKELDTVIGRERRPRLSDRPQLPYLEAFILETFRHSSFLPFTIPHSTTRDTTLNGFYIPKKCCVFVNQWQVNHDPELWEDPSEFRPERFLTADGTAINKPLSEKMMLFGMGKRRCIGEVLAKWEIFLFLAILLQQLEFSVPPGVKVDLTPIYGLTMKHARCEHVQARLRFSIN

[1] = test system: DOI-induced head twitches; experiment: DOI-induced head twitches; assay type: in vivo, Albino Swiss mice; conditions: mice; for Effect on DOI-induced head twitches, acute: 30 min before DOI (2.5 mg/kg)
Description: The experiment was performed according to previously described procedure ([Wierońska et al., 2012], [2013]). Immediately after a 30 min acclimatization period, DOI (2.5 mg/kg, i.p.) was administered in order to induce head twitches. The number of head twitches was then counted for 20 min. […]

Cytochrome P450 2C9 = Cytochrome P450 2C9 (Homo sapiens, UniProt P11712); experiment: Cytochrome P450 inhibition, 2C9; assay type: in vitro ADME
[2] = test system: MK-801-induced social interaction deficits; experiment: Social interaction test (MK-801-induced deficits); assay type: in vivo, Albino Swiss mice; conditions: 30 min before MK-801 (0.3 mg/kg), mice
Description: The method was adapted from [de Moura Linck et al., 2008] and [Woźniak et al., 2016b]. After the 2-day habituation trial (10 min/day) a pair of mice was placed in the open field for 5 min. The social interactions between two mice were determined based on the total time spent participating in social behavior such as genital investigation, sniffing, chasing, and fighting each other. The total number of social episodes was also measured. The test was video-recorded and viewed by a trained observer.

Cytochrome P450 2D6 = Cytochrome P450 2D6 (Homo sapiens, UniProt P10635); experiment: Cytochrome P450 inhibition, 2D6; assay type: in vitro ADME
Cytochrome P450 2B6 = molecular target: T2, Cytochrome P450 2B6 (Homo sapiens, UniProt P20813); experiment: Cytochrome P450 inhibition, 2B6; assay type: in vitro ADME
T2 sequence (P20813 1-491): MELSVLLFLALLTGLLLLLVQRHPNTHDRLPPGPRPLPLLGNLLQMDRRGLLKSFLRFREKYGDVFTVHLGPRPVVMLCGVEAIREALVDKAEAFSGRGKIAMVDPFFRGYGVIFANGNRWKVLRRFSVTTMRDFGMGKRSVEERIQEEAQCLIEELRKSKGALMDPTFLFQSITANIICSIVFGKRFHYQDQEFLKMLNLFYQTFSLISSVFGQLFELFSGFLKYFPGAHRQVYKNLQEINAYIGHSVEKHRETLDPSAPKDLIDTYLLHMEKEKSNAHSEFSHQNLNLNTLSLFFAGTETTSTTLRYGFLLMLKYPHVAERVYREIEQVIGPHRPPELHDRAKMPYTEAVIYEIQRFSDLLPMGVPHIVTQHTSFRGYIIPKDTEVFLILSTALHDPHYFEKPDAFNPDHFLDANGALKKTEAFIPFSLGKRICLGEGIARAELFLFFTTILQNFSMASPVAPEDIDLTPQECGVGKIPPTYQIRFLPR

mGlu7 receptor = molecular target: T3, mGlu7 receptor (Homo sapiens, UniProt Q14831); experiment: HTRF cAMP assay: potentiation of forskolin action without agonist (inverse agonist properties); assay type: cell-based; conditions: T-REx 293 cells, 5 μM forskolin, n = 3, read-out: IC50, potentiation of forskolin action (elevating cAMP concentration), inverse agonist properties
T3 construct: expressed in transfected cells
Description: A homogeneous time-resolved fluorescence (HTRF) cAMP dynamic 2 (Cisbio, Codolet, France) assay was performed as previously described ([Chruścicka et al., 2015]) with recombinant cell lines. Briefly, HEK 293 T-REx cells stably expressing mGlu7 receptor, were collected and suspended in Hanks-HEPES buffer. The cell suspension was added to compounds solution with 5 μM of forskolin (final concentration). After 5 min incubation in 37°C, 5 μl of cAMP-d2 conjugate in lysis buffer was added and mixed with the 10 μl cell suspension by means of an automated pipetting system (Tecan Evo 200, Tecan, Mannedorf, Switzerland). Next, 5 μl anti-cAMP cryptate conjugate was added and the fluorescence at 620 and 665 nm was read after 1 h (Tecan Infinite M1000). The results are shown as the 665 nm/620 nm ratio multiplied by 10^4. The detected signal was inversely proportional to the concentration of cAMP in the sample. […] Each experiment was performed three times (n = 3), and each data point was in triplicate.
Both compounds dose-dependently potentiated forskolin action, elevating cAMP concentration in the T-REx 293 cells (Figure 2B). […] This effect was not observed for an antagonist of mGluR7 – XAP044.

Sequence of Cytochrome P450 2D6 (P10635 whole entry): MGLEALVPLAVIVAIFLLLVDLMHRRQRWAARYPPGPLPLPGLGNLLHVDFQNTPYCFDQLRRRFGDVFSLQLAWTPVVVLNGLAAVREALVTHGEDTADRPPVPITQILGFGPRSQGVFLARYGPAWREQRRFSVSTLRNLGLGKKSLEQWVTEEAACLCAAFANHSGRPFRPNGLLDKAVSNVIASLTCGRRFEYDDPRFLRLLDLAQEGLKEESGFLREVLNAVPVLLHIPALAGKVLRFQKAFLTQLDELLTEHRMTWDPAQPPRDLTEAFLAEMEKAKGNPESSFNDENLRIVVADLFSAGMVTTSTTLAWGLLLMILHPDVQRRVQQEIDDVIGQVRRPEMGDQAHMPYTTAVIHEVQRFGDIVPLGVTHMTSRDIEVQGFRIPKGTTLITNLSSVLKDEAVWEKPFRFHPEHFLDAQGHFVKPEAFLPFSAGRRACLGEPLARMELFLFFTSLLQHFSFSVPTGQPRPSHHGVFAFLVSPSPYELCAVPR
T3 sequence (Q14831 35-915): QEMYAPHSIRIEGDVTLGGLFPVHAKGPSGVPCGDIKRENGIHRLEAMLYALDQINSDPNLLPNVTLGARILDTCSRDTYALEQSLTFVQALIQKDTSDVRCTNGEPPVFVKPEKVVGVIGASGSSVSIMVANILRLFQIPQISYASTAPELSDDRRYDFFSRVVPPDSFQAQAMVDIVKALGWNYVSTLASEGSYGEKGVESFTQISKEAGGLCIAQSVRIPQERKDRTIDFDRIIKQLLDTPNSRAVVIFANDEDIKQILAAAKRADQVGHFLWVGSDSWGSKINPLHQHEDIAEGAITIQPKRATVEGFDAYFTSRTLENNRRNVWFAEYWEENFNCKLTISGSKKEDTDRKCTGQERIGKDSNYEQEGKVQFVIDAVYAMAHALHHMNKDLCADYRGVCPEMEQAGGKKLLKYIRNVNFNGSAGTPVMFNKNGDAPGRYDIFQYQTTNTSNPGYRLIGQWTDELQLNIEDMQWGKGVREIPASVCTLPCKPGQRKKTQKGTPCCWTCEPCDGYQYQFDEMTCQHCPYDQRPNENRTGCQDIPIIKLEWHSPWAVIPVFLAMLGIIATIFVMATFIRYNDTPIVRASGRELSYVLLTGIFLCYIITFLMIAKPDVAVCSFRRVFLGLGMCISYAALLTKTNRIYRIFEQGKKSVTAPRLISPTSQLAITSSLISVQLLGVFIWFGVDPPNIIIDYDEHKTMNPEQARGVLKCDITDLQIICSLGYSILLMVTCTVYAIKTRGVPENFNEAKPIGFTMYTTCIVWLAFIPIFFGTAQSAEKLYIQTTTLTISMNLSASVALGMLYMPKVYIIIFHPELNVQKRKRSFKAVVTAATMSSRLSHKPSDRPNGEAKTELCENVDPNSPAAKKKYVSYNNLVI
Sequence of Cytochrome P450 2C9 (P11712 whole entry): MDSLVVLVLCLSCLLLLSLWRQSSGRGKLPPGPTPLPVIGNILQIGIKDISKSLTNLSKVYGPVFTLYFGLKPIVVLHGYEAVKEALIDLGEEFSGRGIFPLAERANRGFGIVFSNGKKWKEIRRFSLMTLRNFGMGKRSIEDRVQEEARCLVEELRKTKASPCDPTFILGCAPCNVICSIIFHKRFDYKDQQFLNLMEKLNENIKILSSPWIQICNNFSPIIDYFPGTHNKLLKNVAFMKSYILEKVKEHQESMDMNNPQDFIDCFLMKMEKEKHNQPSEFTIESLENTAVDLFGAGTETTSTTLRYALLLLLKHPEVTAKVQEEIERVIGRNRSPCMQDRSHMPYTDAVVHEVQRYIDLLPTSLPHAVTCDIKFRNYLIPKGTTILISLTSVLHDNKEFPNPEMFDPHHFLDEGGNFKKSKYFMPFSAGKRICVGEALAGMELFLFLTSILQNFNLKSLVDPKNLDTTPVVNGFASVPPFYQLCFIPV

| Structure (SMILES) | Motor impairments in the rotarod test (latency to fall) (rotarod performance) | IC50 (Cytochrome P450 1A2) | Effect on DOI-induced head twitches, chronic (10 days) administration ([1]; 2.5 mg/kg) | Effect on DOI-induced head twitches, chronic (10 days) administration ([1]; 5 mg/kg) | IC50 (Cytochrome P450 2C9) | Effect on MK-801-induced reduction of duration of social interaction ([2]; 5 mg/kg i.p.) | Effect on MK-801-induced reduction of number of social episodes ([2]; 5 mg/kg i.p.) | Effect on MK-801-induced reduction of duration of social interaction ([2]; 15 mg/kg i.p.) | Effect on MK-801-induced reduction of number of social episodes ([2]; 15 mg/kg i.p.) | IC50 (Cytochrome P450 2D6) | IC50 (Cytochrome P450 2B6) | IC50 (mGlu7 receptor) | Effect on DOI-induced head twitches, acute ([1]; 5 mg/kg i.p.) | Effect on DOI-induced head twitches, acute ([1]; 10 mg/kg i.p.) | Effect on DOI-induced head twitches, chronic (10 days) administration ([1]; 10 mg/kg) | Effect on DOI-induced head twitches, acute ([1]; 15 mg/kg i.p.) | Effect on MK-801-induced reduction of number of social episodes ([2]; 5, 10, and 20 mg/kg i.p.) | Effect on MK-801-induced reduction of time of interaction ([2]; 5, 10, and 20 mg/kg i.p.) |
| --- | --- | --- | --- | --- | --- | --- | --- | --- | --- | --- | --- | --- | --- | --- | --- | --- | --- | --- |
| CCc1nc2c(o1)CC(c1ccc(C)cc1C)CC2=O (stereo not shown) [ADX71743, 6-(2,4-Dimethylphenyl)-2-ethyl-6,7-dihydro-4(5H)-benzoxazolone] | did not induce detectable motor impairments | > 10 µM | statistical effect | statistical effect | > 10 µM | reversed the effect of MK-801 | reversed the effect of MK-801 | reversed the effect of MK-801 | reversed the effect of MK-801 | > 10 µM | > 10 µM | 0.22 µM | – | – | – | – | – | – |
| COc1ccc(-c2cc3onc(-c4ccncc4)c3c(=O)n2C)cc1 [MMPIP, 6-(4-Methoxyphenyl)-5-methyl-3-(4-pyridinyl)-isoxazolo(4,5-c)pyridin-4(5H)-one] | did not induce detectable motor impairments | > 10 µM | – | statistically significant effect | > 10 µM | – | – | – | – | > 10 µM | > 10 µM | 0.34 µM | significantly reduced DOI-induced head twitches | significantly reduced DOI-induced head twitches | statistically significant effect | significantly reduced DOI-induced head twitches | no effect | no effect |
